The values that follow come from ChEMBL document CHEMBL1157661 (Bioorg Med Chem, 2010).

The structures appear in SMILES notation. Converted amounts (≈) assume the structure as drawn.

Data set [1] concerns the target T1, Adenosine receptor A1 (Homo sapiens) (UniProt P30542).
T1 sequence (whole entry): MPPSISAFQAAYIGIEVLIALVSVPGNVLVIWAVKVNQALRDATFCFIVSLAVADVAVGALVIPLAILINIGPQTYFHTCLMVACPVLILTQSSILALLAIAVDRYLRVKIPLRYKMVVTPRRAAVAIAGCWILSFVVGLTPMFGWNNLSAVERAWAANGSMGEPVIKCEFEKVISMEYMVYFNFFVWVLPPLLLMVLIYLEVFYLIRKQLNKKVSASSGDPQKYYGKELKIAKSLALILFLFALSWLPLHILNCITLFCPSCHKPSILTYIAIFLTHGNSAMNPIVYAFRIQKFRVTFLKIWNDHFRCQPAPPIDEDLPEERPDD
The experiment in a line: Displacement of [3H]DPCPX from human recombinant adenosine A1 receptor expressed in CHO-A1 cell membrane at 10 uM. Format: cell membranes. A general note: In a radioligand displacement assay an active substance lowers the binding of a labelled ligand.

The target of data set [2] is Adenosine receptor A2a (Homo sapiens) (UniProt P29274). Kind of data set: Displacement of [3H]ZM241385 from human recombinant adenosine A2A receptor expressed in human HeLa cell membrane at 10 uM. Format: cell membranes.
Data set [3] deals with T2, Adenosine receptor A2b (Homo sapiens) (UniProt P29275).
T2 sequence (whole entry): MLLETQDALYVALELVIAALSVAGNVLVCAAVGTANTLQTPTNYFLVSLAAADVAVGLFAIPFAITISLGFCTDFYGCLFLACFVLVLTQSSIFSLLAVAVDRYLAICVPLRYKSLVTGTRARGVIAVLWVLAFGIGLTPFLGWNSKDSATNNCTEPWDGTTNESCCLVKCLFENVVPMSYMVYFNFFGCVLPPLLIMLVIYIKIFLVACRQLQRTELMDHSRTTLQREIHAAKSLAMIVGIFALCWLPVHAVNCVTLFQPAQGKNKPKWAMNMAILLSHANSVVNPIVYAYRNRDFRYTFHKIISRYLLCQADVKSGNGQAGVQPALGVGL
The experiment in a line: Displacement of [3H]DPCPX from human recombinant adenosine A2B receptor expressed in HEK293 cell membrane at 10 uM. It counts as cell membranes.

Data set [4] deals with T3, Adenosine receptor A3 (Homo sapiens) (UniProt P0DMS8).
T3 sequence (whole entry): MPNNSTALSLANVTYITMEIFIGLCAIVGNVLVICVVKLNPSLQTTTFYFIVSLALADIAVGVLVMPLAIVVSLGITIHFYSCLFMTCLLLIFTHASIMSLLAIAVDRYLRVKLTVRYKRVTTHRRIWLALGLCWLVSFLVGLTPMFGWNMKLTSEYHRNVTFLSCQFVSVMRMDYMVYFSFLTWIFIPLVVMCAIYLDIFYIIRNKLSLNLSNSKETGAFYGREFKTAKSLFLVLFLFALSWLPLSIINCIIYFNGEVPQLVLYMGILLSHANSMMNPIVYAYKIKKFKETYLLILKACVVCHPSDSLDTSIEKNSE
The experiment in a line: Displacement of [3H]NECA from human recombinant adenosine A3 receptor expressed in human HeLa cell membrane at 10 uM. Format: cell membranes.

The nature of data set [5]: Solubility in water. It counts as physicochemical.
Data set [6] can be described thus: Solubility in glycerin. Format: physicochemical.
A short description of data set [7]: Solubility in di(ethylene glycol). Format: physicochemical.
A further data set deals with T4, Adenosine receptor A1 (Homo sapiens, UniProt P30542).
T4 sequence (P30542 whole entry): T1 sequence (whole entry)
Kind of data set: Displacement of [3H]DPCPX from human recombinant adenosine A1 receptor expressed in CHO-A1 cell membrane. It counts as cell membranes.

Sequence of Adenosine receptor A2a (Homo sapiens) (P29274 whole entry): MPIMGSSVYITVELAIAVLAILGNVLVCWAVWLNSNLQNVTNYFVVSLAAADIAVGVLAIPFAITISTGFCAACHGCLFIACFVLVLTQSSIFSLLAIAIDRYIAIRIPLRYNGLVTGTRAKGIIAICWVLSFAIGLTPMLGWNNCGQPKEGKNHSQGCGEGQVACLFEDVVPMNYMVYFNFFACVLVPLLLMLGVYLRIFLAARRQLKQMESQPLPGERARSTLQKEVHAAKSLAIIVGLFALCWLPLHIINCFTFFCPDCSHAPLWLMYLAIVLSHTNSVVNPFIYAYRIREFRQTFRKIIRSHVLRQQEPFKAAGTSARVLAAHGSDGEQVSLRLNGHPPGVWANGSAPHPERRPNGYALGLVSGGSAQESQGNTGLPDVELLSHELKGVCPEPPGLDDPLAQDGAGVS

On to `COCCOCCOCc1nc2c([nH]1)c(=O)n(C)c(=O)n2C`, for which the inhibition in data set [1] stood at 37%; in data set [2], 20%; in data set [3], 10%; in data set [4], 1%. Moreover, the solubility was 14 mM (≈ 4370 µg/mL) in data set [5], “Insoluble” in data set [6] and 10 mM (≈ 3120 µg/mL) in data set [7].

Take `Cn1c(=O)c2c(ncn2CCOCCOCCOCCN=[N+]=[N-])n(C)c1=O`: the inhibition worked out at 24% in data set [1], 17% in data set [2], 3% in data set [3] and 2% in data set [4].

For the compound `C=CCCCCCCCCCOCCOCCOCCOCCn1cnc2c1c(=O)n(C)c(=O)n2C`, the Ki on Adenosine receptor A1 stood at 5 µM. For the same compound, the inhibition in data set [1] is 53%; in data set [2] it was 18%; in data set [3], 47%; in data set [4], 19%.

One may read the inhibition as the share of the control response that was lost under treatment. For orientation: solubility means the concentration that dissolves in the medium under given conditions. The low end stands for little dissolved substance, the high end for much dissolved substance. The Ki is the equilibrium dissociation constant of an inhibitor or competing ligand from its target.
